The results in this text go back to US20250188082A1, “Use of Hypoxanthine Compound In Preparation of Drug For Treating Pulmonary Fibrosis” (Sichuan Yiasuo Pharmaceutical Technology Co., Ltd., priority 2022, published 2025).

Assay type in all cases: in vivo, C57BL/6 mice
Assay [1] concerns novel coronavirus-induced pulmonary fibrosis model (COVID-19 novel coronavirus strains). As to the kind of experiment: Novel coronavirus-induced pulmonary fibrosis model. The conditions noted are these: 120 mg/kg/d intragastric, 14 days; for Ashcroft scores: novel coronavirus + bleomycin, lung tissue HE; for IL-1β / IL-6 / NF-κB / TNF-α: serum, COVID-19 novel coronavirus + bleomycin, from two weeks after model. An excerpt: Experimental method: an in-vivo novel coronavirus-induced pulmonary fibrosis model was established: C57BL/6 mice (with weights being 22-25 g) were randomly and evenly divided into a plurality of groups, including blank control group, model group, Nintedanib positive control group, hypoxanthine analogue A group, hypoxanthine analogue B group, hypoxanthine analogue C group, compound 1 group, a compound 2 group . . . compound 12 group, with 9 mice in each group. On Day 1, the mice in blank control group were instilled with normal saline nasally, and the mice in other groups were all infected with COVID-19 novel coronavirus strains (30 μL) through nasal instillation. On Day 2, the mice received 5 mg/kg bleomycin through tracheas to induce their pulmonary fibrosis. After the model was established for two weeks, the mice in each group were intragastrically administrated for intervention for consecutive 14 days; the mice in blank control group and model group intragastrically received the same dosage of normal saline as those in drug groups; the mice in Nintedanib positive control group received Nintedanib (120 mg/kg); the mice in hypoxanthine analogue A group, hypoxanthine analogue B group and hypoxanthine analogue C group respectively received hypoxanthine analogue A (120 mg/kg/d), hypoxanthine analogue B (120 mg/kg/d) and hypoxanthine analogue C (120 mg/kg/d); and the mice in compound 1 group, compound 2 group . . . compound 12 group respectively received compound 1 (120 mg/kg/d), compound 2 (120 mg/kg/d) . . . compound 12 (120 mg/kg/d) prepared in example 1. After administration for consecutive 14 days, the mice were observed every day, and their weights and death conditions were recorded. After administration, blood was taken from eyeballs for immediately detecting the expression levels of NF-κB, TNF-α, IL-1 and IL-6 in serum, and lung tissues were taken for HE detection and Ashcroft scoring.

Assay [2] has as its system influenza B virus-induced pulmonary fibrosis model (influenza B (H7N9) virus). The settings on record: 120 mg/kg/d intragastric, 14 days; for Ashcroft scores: influenza B virus + bleomycin, lung tissue HE; for IL-1β / NF-κB / TNF-α / IL-6: serum, from two weeks after model; for IL-1β / NF-κB / TNF-α: influenza B (H7N9) + bleomycin; for IL-6: influenza B + bleomycin.
Assay [3] relates to bleomycin-induced pulmonary fibrosis model. As to the kind of experiment: Early pulmonary fibrosis: bleomycin-induced model, dosing from one week after modelling. The settings on record: early pulmonary fibrosis, 120 mg/kg/d intragastric, 14 days, from one week after model; for Leucocyte / Lymphocyte / Neutrophil: blood, Day 15, twice every day; for Ashcroft scores: lung tissue HE staining.

For assay [4], the system named is coronavirus-induced pulmonary fibrosis model (HcoV-OC43). The assay can be described thus: Coronavirus-induced pulmonary fibrosis model. The settings on record: 120 mg/kg/d intragastric, 14 days; for Ashcroft scores: coronavirus HcoV-OC43 + bleomycin, lung tissue HE; for IL-1β / IL-6 / NF-κB / TNF-α: serum, HcoV-OC43 + bleomycin, from two weeks after model. An excerpt: Experimental method: an in-vivo coronavirus-induced pulmonary fibrosis model mice was established: C57BL/6 mice (with weights being 22-25 g) were randomly and evenly divided into a plurality of groups, including blank control group, model group, Nintedanib positive control group, hypoxanthine analogue A group, hypoxanthine analogue B group, hypoxanthine analogue C group, compound 1 group, compound 2 group . . . compound 12 group, with 9 mice in each group. On Day 1, the mice in the blank control group were instilled with normal saline nasally, and the mice in other groups were all infected with HcoV-OC43 coronavirus strains (30 μL) through nasal instillation. On Day 2, the mice received 5 mg/kg bleomycin through tracheas to induce their pulmonary fibrosis. After the model was established for two weeks, the mice in each group were intragastrically administrated for intervention for consecutive 14 days; the mice in blank control group and model group intragastrically received the same dosage of the normal saline as those in drug groups; the mice in Nintedanib positive control group received Nintedanib (120 mg/kg); the mice in hypoxanthine analogue A group, hypoxanthine analogue B group and hypoxanthine analogue C group respectively received hypoxanthine analogue A (120 mg/kg/d), hypoxanthine analogue B (120 mg/kg/d) and hypoxanthine analogue C (120 mg/kg/d); and the mice in compound 1 group, compound 2 group . . . compound 12 group respectively received compound 1 (120 mg/kg/d), compound 2 (120 mg/kg/d) . . . compound 12 (120 mg/kg/d) prepared in example 1. After administration for consecutive 14 days, the mice were observed every day, and their weights and death conditions were recorded. After administration, blood was taken from eyeballs for immediately detecting the expression levels of NF-κB, TNF-α, IL-1 and IL-6 in serum, and lung tissues were taken for HE detection and Ashcroft scoring.

Assay [5] concerns bleomycin-induced pulmonary fibrosis model. As to the kind of experiment: Comparison with comparative drugs: bleomycin-induced model, hydroxyproline and TGF-β. The settings on record: 120 mg/kg/d intragastric, twice every day, 14 days, from two weeks after model; Day 15.

Turning to `CC(C)n1cnc2nc[nH]c(=O)c21` [Compound 6], in assay [1], the Ashcroft scores is recorded as 1.34, the IL-1β turned out to be 38.7 pg/mL, the IL-6 stood at 67.1 pg/mL and the NF-κB was determined as 21.2 pg/mL. Further, the TNF-α in assay [1] was found to be 68.3 pg/mL. Besides, in assay [2], the Ashcroft scores was 1.14, the IL-1β is on record as 27.2 pg/mL, the NF-κB stood at 32.4 pg/mL and the TNF-α is recorded as 75.3 pg/mL. Moreover, the IL-6 in assay [2] was found to be 65.6 pg/mL. In assay [3], the Leucocyte was 4.25 10^9/L, the Lymphocyte is 5.49 10^9/L, the Neutrophil was 1.19 10^9/L and the Ashcroft scores is recorded as 1.08. Moreover, in assay [4], the Ashcroft scores is recorded as 1.30, the IL-1β was 39.5 pg/mL, the IL-6 is 65.7 pg/mL and the NF-κB was determined as 29.3 pg/mL. Also, the TNF-α in assay [4] was 56.2 pg/mL. For the same compound, in assay [5], the “Hydroxyproline in bronchoalveolar lavage fluids” value was 0.68 ± 0.07 µg/mg, the “Hydroxyproline in lung tissues” value amounted to 1.46 ± 0.07 µg/mg, the “TGF-β in bronchoalveolar lavage fluids” value was found to be 3.91 ± 0.18 µg/L and the “TGF-β in lung tissues” value amounted to 24.18 ± 2.14 µg/L.

As for `COc1ncnc2c1ncn2C(C)C` [Compound 7], in assay [1], the Ashcroft scores was determined as 1.15, the IL-1β was determined as 39.9 pg/mL, the IL-6 is 66.4 pg/mL and the NF-κB is listed as 24.6 pg/mL. Further, the TNF-α in assay [1] was 67.5 pg/mL. In assay [2], the Ashcroft scores amounted to 1.20, the IL-1β worked out at 27.9 pg/mL, the NF-κB is 33.4 pg/mL and the TNF-α stood at 74.1 pg/mL. In assay [2], the IL-6 came to 70.3 pg/mL. In assay [3] (120 mg/kg/day), the Leucocyte is reported as 4.19 10^9/L, the Lymphocyte is on record as 5.44 10^9/L, the Neutrophil is listed as 1.23 10^9/L and the Ashcroft scores is reported as 1.11. Also, in assay [4], the Ashcroft scores was found to be 1.49, the IL-1β was 33.2 pg/mL, the IL-6 is 64.3 pg/mL and the NF-κB is 25.6 pg/mL. For the same compound, the TNF-α in assay [4] was 55.9 pg/mL. Also, in assay [5], the “Hydroxyproline in bronchoalveolar lavage fluids” value is 0.69 ± 0.08 µg/mg, the “Hydroxyproline in lung tissues” value came to 1.42 ± 0.14 µg/mg, the “TGF-β in bronchoalveolar lavage fluids” value came out at 4.02 ± 0.15 µg/L and the “TGF-β in lung tissues” value amounted to 25.15 ± 2.53 µg/L.

In the case of `CCOc1ncnc2c1ncn2C(C)C` [Compound 8], in assay [1], the Ashcroft scores came out at 1.24, the IL-1β stood at 38.4 pg/mL, the IL-6 came out at 68.2 pg/mL and the NF-κB is reported as 23.4 pg/mL. Moreover, the TNF-α in assay [1] is recorded as 66.7 pg/mL. In addition, in assay [2], the Ashcroft scores is 1.16, the IL-1β was found to be 27.1 pg/mL, the NF-κB was 31.9 pg/mL and the TNF-α came to 73.5 pg/mL. Further, the IL-6 in assay [2] is given as 66.5 pg/mL. Further, in assay [3], the Leucocyte is listed as 4.27 10^9/L, the Lymphocyte is on record as 5.31 10^9/L, the Neutrophil was 1.26 10^9/L and the Ashcroft scores came to 1.09. Moreover, in assay [4], the Ashcroft scores turned out to be 1.29, the IL-1β was 36.6 pg/mL, the IL-6 turned out to be 66.7 pg/mL and the NF-κB is 28.3 pg/mL. Also, the TNF-α in assay [4] is given as 56.1 pg/mL. For the same compound, in assay [5], the “Hydroxyproline in bronchoalveolar lavage fluids” value was 0.72 ± 0.06 µg/mg, the “Hydroxyproline in lung tissues” value was 1.47 ± 0.10 µg/mg, the “TGF-β in bronchoalveolar lavage fluids” value stood at 4.06 ± 0.18 µg/L and the “TGF-β in lung tissues” value is 25.17 ± 2.35 µg/L.

In the case of `CCCOc1ncnc2c1ncn2C(C)C` [Compound 9], in assay [1], the Ashcroft scores was determined as 1.34, the IL-1β is 39.6 pg/mL, the IL-6 is on record as 69.1 pg/mL and the NF-κB is on record as 22.9 pg/mL. Also, the TNF-α in assay [1] stood at 68.8 pg/mL. In assay [2], the Ashcroft scores worked out at 1.23, the IL-1β is reported as 26.9 pg/mL, the NF-κB came out at 30.8 pg/mL and the TNF-α came to 73.8 pg/mL. In assay [2], the IL-6 came to 66.1 pg/mL. Besides, in assay [3], the Leucocyte is on record as 4.14 10^9/L, the Lymphocyte is recorded as 5.23 10^9/L, the Neutrophil is listed as 1.33 10^9/L and the Ashcroft scores is on record as 1.12. Besides, in assay [4], the Ashcroft scores is 1.31, the IL-1β is recorded as 35.9 pg/mL, the IL-6 turned out to be 64.3 pg/mL and the NF-κB was 24.4 pg/mL. For the same compound, the TNF-α in assay [4] is listed as 55.1 pg/mL. For the same compound, in assay [5], the “Hydroxyproline in bronchoalveolar lavage fluids” value came out at 0.73 ± 0.09 µg/mg, the “Hydroxyproline in lung tissues” value was determined as 1.41 ± 0.09 µg/mg, the “TGF-β in bronchoalveolar lavage fluids” value stood at 4.05 ± 0.14 µg/L and the “TGF-β in lung tissues” value worked out at 25.65 ± 2.16 µg/L.

As to `CC(C)Oc1ncnc2c1N(C(C)C)CN2C(C)C` [Compound 10], in assay [1], the Ashcroft scores is on record as 1.67, the IL-1β is 38.1 pg/mL, the IL-6 worked out at 67.5 pg/mL and the NF-κB was determined as 26.5 pg/mL. For the same compound, the TNF-α in assay [1] is 68.9 pg/mL. Further, in assay [2], the Ashcroft scores came to 1.25, the IL-1β is recorded as 27.8 pg/mL, the NF-κB is on record as 31.2 pg/mL and the TNF-α is given as 74.7 pg/mL. The IL-6 in assay [2] is 65.5 pg/mL. In assay [3], the Leucocyte is on record as 4.17 10^9/L, the Lymphocyte is listed as 5.27 10^9/L, the Neutrophil is 1.21 10^9/L and the Ashcroft scores came out at 1.17. Also, in assay [4], the Ashcroft scores was 1.41, the IL-1β turned out to be 37.7 pg/mL, the IL-6 amounted to 68.2 pg/mL and the NF-κB is given as 25.3 pg/mL. The TNF-α in assay [4] came out at 56.2 pg/mL. In assay [5], the “Hydroxyproline in bronchoalveolar lavage fluids” value worked out at 0.74 ± 0.06 µg/mg, the “Hydroxyproline in lung tissues” value was determined as 1.37 ± 0.08 µg/mg, the “TGF-β in bronchoalveolar lavage fluids” value was 4.21 ± 0.18 µg/L and the “TGF-β in lung tissues” value came to 24.12 ± 2.25 µg/L.
